Test results taken from US20250268868A1, “AGENT FOR REDUCING VISCERAL FAT WEIGHT” (Kowa Co., Ltd., priority 2009, published 2025).

Tests used:
KK-Ay mice [1] = test: Fat weight reducing effect on obesity model mice (KK-Ay mice); type: in vivo, mouse; settings: oral once a day for 35 days
Procedure: This test employed compound A, as well as (R)2-[3-[ [N-(5-fluorobenzoxazol2-yl)-N2-phenoxyethyl]aminomethyl]phenoxy]butyric acid (hereinafter will be referred to as “compound B”), which is an optically active substance of the compound disclosed in Example 229 in Patent Document 2. Compound A, compound B, or fenofibrate was administered to KK-Ay mice, and the effects of the compound on epididymal fat weight and mesenteric fat weight were determined through the below-described methods.
Method: Male KK-Ay mice (KK-Ay/TaJcl) were purchased from Clea Japan, Inc. (10 weeks old upon test). Each compound was orally administered to mice once a day for […]. Throughout the test period, the mice were reared in a rearing cage (light-dark cycle (light period by interior lighting: 7:00 a.m. to 7:00 p.m.), temperature: 23±3° C., humidity: 55+15%) under conditions where solid feed (CE-2, product of Oriental Yeast Co., Ltd.) and tap water were fed ad libitum.
Each of compound A, compound B, and fenofibrate was suspended in a 0.5 mass % aqueous solution of methylcellulose (Metolose (registered trademark), SM-400, product of Shin-Etsu Chemical Co., Ltd.) so that the dose of the aqueous solution was adjusted to 5 mL/kg. The resultant suspension was refrigerated in a light-shielding bottle at 4° C., and drug preparation was carried out every seven days.
(§1) Animals were divided into the following four groups (six animals per group): a first group (control), a second group (administration of compound A (1 mg/kg)), a third group (administration of compound B (3 mg/kg)), and a fourth group (administration of fenofibrate (300 mg/kg)).
(§2) Each drug was orally administered once a day (in the morning) for 35 days. A 0.5 mass % aqueous methylcellulose solution was orally administered (5 mL/kg) to the animals of the first group (control).
After completion of administration, epididymal fat and mesenteric fat were removed and weighed.
The results were represented as percent reduction (mean value) in fat weight in each compound administration group with respect to the control group.

Zucker fatty rats [2] = test: Epididymal fat weight (indicator of visceral fat weight) in Zucker fatty rats; type: in vivo, rat; settings: compound A 3 mg/kg, oral once a day for 14 days
Procedure: (§3) This test employed (R)-2-[3-[[N-(benzoxazol2-yl) -N-3-(4-methoxyphenoxy)propyl]aminomethyl]phenoxy]butyric acid (hereinafter will be referred to as “compound A”), which is an optically active substance of the compound disclosed in Example 14 in Patent Document 2. Compound A or fenofibrate was administered to Zucker fatty rats, and the effects of the compound on plasma triglyceride (TG) level, plasma FGF21 level, and epididymal fat weight were determined through the below-described methods.
(§4) Hyperlipidemic Zucker fatty rats with obesity due to overeating (Crlj: ZUC-Lepr Genotype: fa/fa) and Zucker lean rats without obesity (Crlj: ZUC-Lepr Genotype: fa/+ or +/+) were purchased from Charles River Laboratories Japan Inc. (eight weeks old upon test).
(§5) Throughout the test period, the rats were reared in a rearing cage (light-dark cycle (light period by interior lighting: 7:00 a.m. to 7:00 p.m.), temperature: 23+3° C., humidity: 55±15%) under conditions where solid feed (CE-2, product of Oriental Yeast Co., Ltd.) and tap water were fed ad libitum. […]
(§6) On day 14 after initiation of administration, blood was collected after four-hour fasting following administration, and plasma triglyceride level and plasma FGF21 level were measured through an enzymatic method and ELISA (Human FGF-21 ELISA Kit, product of Biovender), respectively. […]

FGF21 = test: Plasma FGF21 level in Zucker fatty rats, ELISA; type: in vivo, rat; settings: compound A 3 mg/kg, oral once a day for 14 days, day 14
Procedure: as §3, §4, §5, §6

Zucker fatty rats [3] = test: Adverse events and feed intake during administration to Zucker fatty rats; type: in vivo, rat
Procedure: Rats were divided into the following four groups (six rats per group) so that body weights, plasma total cholesterol levels, and plasma triglyceride levels were averaged in the groups: a first group (control), a second group (administration of compound A (1 mg/kg)), a third group (administration of compound A (3 mg/kg)), and a fourth group (administration of fenofibrate (300 mg/kg)). A group of five Zucker lean rats was employed as a negative control group.
Each drug was orally administered once a day (in the morning) for continuous 14 days. A 0.5 mass % aqueous methylcellulose solution (2 mL/kg) was orally administered to the rats of the first group (control).
However, from 11 days to 14 days after administration, feed intake was reduced by 14% in the rats of the group of fenofibrate administration, which raised a concern about the toxicity of fenofibrate. Even under such a situation, fat weight tended to decrease only slightly.

KK-Ay mice [4] = settings: mouse, in vivo, 1 mg/kg
Procedure: as §1, §2

Zucker fatty rats [5] = test: Plasma triglyceride (TG) level in Zucker fatty rats, enzymatic method; type: in vivo, rat; settings: compound A 3 mg/kg, oral once a day for 14 days, blood on day 14 after four-hour fasting
Procedure: as §3, §4, §5, §6

rat model = settings: cited from earlier work

## CC[C@@H](Oc1cccc(CN(CCCOc2ccc(OC)cc2)c2nc3ccccc3o2)c1)C(=O)O [Compound A, (R)-2-[3-[[N-(benzoxazol2-yl) -N-3-(4-methoxyphenoxy)propyl]aminomethyl]phenoxy]butyric acid]
KK-Ay mice [1]; 1 mg/kg
  Epididymal fat weight, percent reduction (mean value) with respect to the control group: 27%
  Mesenteric fat weight, percent reduction (mean value) with respect to the control group: 20%
Zucker fatty rats [2]
  epididymal fat weight versus control group: considerably and statistically significantly lower than that in the control group
FGF21
  plasma FGF21 level versus control group: significantly (p<0.001) higher than that in the control group
Zucker fatty rats [3]; rat, in vivo, po
  adverse events during the period of administration: adverse events were not particularly observed
KK-Ay mice [4]
  adverse events during the period of administration: adverse events were not particularly observed
Zucker fatty rats [5]
  plasma triglyceride level versus control group: significantly (p<0.05) lower than that in the control group

## CC[C@@H](Oc1cccc(CN(CCOc2ccccc2)c2nc3cc(F)ccc3o2)c1)C(=O)O [Compound B, (R)2-[3-[ [N-(5-fluorobenzoxazol2-yl)-N2-phenoxyethyl]aminomethyl]phenoxy]butyric acid]
KK-Ay mice [1]; 3 mg/kg
  Mesenteric fat weight, percent reduction (mean value) with respect to the control group: 17%

## CC(C)OC(=O)C(C)(C)Oc1ccc(C(=O)c2ccc(Cl)cc2)cc1 [Fenofibrate, fenofibrate]
KK-Ay mice [1]; 300 mg/kg
  Epididymal fat weight, percent reduction (mean value) with respect to the control group: 15%
  Mesenteric fat weight, percent reduction (mean value) with respect to the control group: 13%
Rat model; high dose of fenofibrate, rat model
  adverse events at high dose: adverse events (e.g., decrease in hemoglobin, or necrosis of liver cells) occur in the model
Rat model; rats, dose of 30 mg/kg or more
  adverse events: various adverse events occur in the rats
Zucker fatty rats [3]; fenofibrate 300 mg/kg, Zucker fatty rats, for 10 days after administration
  feed intake compared with control group: maintained equal to that in the rats of the control group
Zucker fatty rats [3]; fenofibrate 300 mg/kg, Zucker fatty rats, from 11 days to 14 days after administration
  reduction of feed intake: 14%
